Here are results for two substances from patent US7749955B2, “Separation of polypeptides comprising a racemized amino acid” (Novo Nordisk A/S, priority 2003, dated 2010).

The data set can be described thus: isoelectric pH of the peptide (isoelectric precipitation). Format: physicochemical. The note with it: pH at which the peptide was precipitated after chromatography. From the text:
Arg^34GLP-1(7-37) was expressed in yeast (S. cerevisiae) by conventional recombinant technology as described elsewhere (WO 98/08871). Arg^34GLP-1(7-37) in the fermentation broth was then purified by conventional reversed phase chromatography and subsequently precipitated at the isoelectric pH of the peptide, i.e. at pH 5.4. The precipitate was isolated by centrifugation. Following another RP-LC purification step and isoelectric precipitation, the Arg^34GLP-1(7-37) peptide was acylated as decribed in WO 00/55119 to give the GLP-1 derivative Arg^34Lys^26N^ε(γ-Glu(N^α-hexadecanoyl))GLP-1(7-37).
L17K, K30R-GLP2(1-33) was expressed in yeast (S. cerevisiae) by conventional recombinant technology in a similar manner as described in WO 98/08871 for GLP-1 peptides. L17K, K30R-GLP2(1-33) in the fermentation broth was then purified by conventional aniaon exchange and reversed phase chromatography and subsequently precipitated at the isoelectric pH of the peptide, i.e. at pH 4. The precipitate was isolated by centrifugation. D-His-L17K, K30R-GLP2(1-33) was prepared by solid phase synthesis.

As for Arg^34GLP-1(7-37), the “isoelectric pH of the peptide” value was found to be 5.4 pH.

In the case of “L17K, K30R-GLP2(1-33) (HADGSFSDEMNTILDNKAARDFINWLIQTRITD; Glucagon-like peptide 2; UniProt P01275 146-178, looked up, variant L17K K30R) [GLP-2 analogue expressed in yeast]”, the “isoelectric pH of the peptide” value is 4 pH.
